Activity calls are given as the source filed them.
Legend:
[1] = NIH:OVCAR-3 ovarian cancer cell cytotoxicity, dose response, PAX8 inhibitor project, plate reader, dry powder samples (AID 743044); format: functional, cell-based
[2] = cytotoxicity in OVCAR8 ovarian cancer cells, dose response, PAX8 project, cell-based, plate reader, dry powder samples (AID 743197); format: functional; conditions: OVCAR-8
[3] = target: Paired box protein Pax-8 (Homo sapiens, UniProt Q06710); test: inhibitors of PAX8-driven TPO luciferase reporter, dose response, RMG-I cells, cherry-pick (AID 687027); format: functional, cell-based;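 note: luciferase reporter driven by Pax8 target thyroperoxidase promoter measured by SteadyGlo luminescence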
[4] = IGROV1 ovarian cancer cell cytotoxicity, dose response, PAX8 inhibitor project, plate reader, dry powder samples (AID 743043); format: functional, cell-based; conditions: IGROV-1
[5] = P. falciparum Dd2 growth inhibitors, dose response, SYBR Green, dry powder samples, set 9 (AID 1159568); format: functional, cell-based
[6] = target: Major prion protein (Homo sapiens, UniProt P04156); format: functional, cell-based
[7] = cells
[8] = inhibitors of PGC1a acetylation in cells, dose response, cell-based, cherry-picked samples (AID 720514); format: functional;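 note: potency may reflect raised or lowered acetylation signal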
[9] = LGR2 antagonists, dose response, cell-based, HEK293, CRE-luciferase reporter, cherry pick, set 2 (AID 743343); format: functional;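 note: transfected cells were stimulated with diluted bursicon conditioned medium after compound addition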
[10] = MC4R antagonists, dose response, counter-screen for LGR2 antagonist project, cell-based, plate reader, cherry pick (AID 743444); format: functional;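 note: transfected HEK 293 cells stimulated with alpha-MSH peptide; potency of inhibitors of the alpha-MSH evoked signal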
[11] = target: Cytochrome P450 3A4 (Homo sapiens, UniProt P08684); conditions: Potency;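 note: confirmatory qHTS run detecting inhibitors and substrates of CYP3A4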
[12] = target: Protein-tyrosine kinase 2-beta (Homo sapiens, UniProt Q14289);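 note: potency of inhibitors of PYK2 kinase phosphorylation of poly-GT substrate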
[13] = target: T1, Polyadenylate-binding protein 1 (Homo sapiens, UniProt P11940); test: PABP1 MLLE–PAM2 binding inhibitor potency, dose response, biochemical, fluorescence polarization, FITC-PAM2 peptide (AID 602259); format: functional; conditions: read-out: IC50_Mean
[14] = target: T1, Polyadenylate-binding protein 1; test: PABP1 MLLE–PAM2 interaction inhibitors, dose response, miRNA deadenylation inhibitor project, biochemical, fluorescence polarization, Cy5-PAM2 peptide, secondary (AID 602260); format: functional; conditions: read-out: IC50_Mean
[15] = target: T2, Caspase-6 (Homo sapiens, UniProt P55212); test: human caspase-6 inhibitors, dose response, biochemical, VEID-R110 fluorescence, cherry-pick (AID 720632)
T2 sequence (P55212 whole entry): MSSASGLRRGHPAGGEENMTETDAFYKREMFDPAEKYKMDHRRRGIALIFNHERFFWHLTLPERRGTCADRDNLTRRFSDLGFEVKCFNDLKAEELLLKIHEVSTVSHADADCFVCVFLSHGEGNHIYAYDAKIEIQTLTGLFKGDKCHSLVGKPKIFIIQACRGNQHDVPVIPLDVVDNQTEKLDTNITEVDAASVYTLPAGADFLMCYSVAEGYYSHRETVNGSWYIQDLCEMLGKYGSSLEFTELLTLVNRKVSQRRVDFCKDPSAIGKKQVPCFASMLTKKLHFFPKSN

[16] = target: T3, Tyrosyl-DNA phosphodiesterase 2 (Homo sapiens, UniProt O95551); test: human TDP2 enzyme inhibitors, dose response, biochemical, epi absorbance, IC50 (AID 743297)
T3 sequence (O95551 whole entry): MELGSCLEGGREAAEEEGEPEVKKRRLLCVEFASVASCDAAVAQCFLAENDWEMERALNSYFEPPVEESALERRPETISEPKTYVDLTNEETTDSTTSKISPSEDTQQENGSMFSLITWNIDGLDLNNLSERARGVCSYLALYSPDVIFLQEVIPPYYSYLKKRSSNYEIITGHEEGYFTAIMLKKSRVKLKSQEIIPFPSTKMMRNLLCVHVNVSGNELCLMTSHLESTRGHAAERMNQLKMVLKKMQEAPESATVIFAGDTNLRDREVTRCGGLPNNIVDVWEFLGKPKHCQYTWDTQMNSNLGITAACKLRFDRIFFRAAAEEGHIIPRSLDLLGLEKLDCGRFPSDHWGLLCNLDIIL

[17] = cytotoxicity in HEK-293T cells, dose response, cytotoxicity control for BCR NF-kB inhibitor project, luminescence, B-cell screen hits (AID 489021); format: functional, cell-based;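 note: HEK-293T cells carrying an NF-kB luciferase reporter; cells exposed to compound for about 14 hours before viability readout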
[18] = test system: H9c2; test: cells; format: functional, cell-based; conditions: Rattus norvegicus, H9c2, Myocardium;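 note: confirmatory concentration-response retest of ultra-high-throughput screening hits for modulation of myocardial damage; cell death induced by hydrogen peroxide oxidative stress; compound pretreatment for 60 min then peroxide exposure for 2 h; potency is for protecting the cells against peroxide damage rather than for killing them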
[19] = target: Large T antigen (Simian virus 40, UniProt P03070); format: functional, Betapolyomavirus macacae;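 note: Confirmatory-stage PubChem screen for compounds that inhibit SV40 T antigen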
[20] = NIH-3T3 fibroblast cytotoxicity, dose response, cytotoxicity control, cell-based, fluorescence, Alamar Blue, secondary assay (AID 2327); format: functional;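 note: NIH-3T3 mouse fibroblasts cultured with fluconazole at 8 µg/mL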
[21] = target: T4, Zinc finger protein mex-5 (Caenorhabditis elegans, UniProt Q9XUB2); test: MEX-5/TCR-2 RNA interaction inhibitors, dose response, biochemical, C. elegans, fluorescence polarization (AID 1960)
T4 sequence (Q9XUB2 whole entry): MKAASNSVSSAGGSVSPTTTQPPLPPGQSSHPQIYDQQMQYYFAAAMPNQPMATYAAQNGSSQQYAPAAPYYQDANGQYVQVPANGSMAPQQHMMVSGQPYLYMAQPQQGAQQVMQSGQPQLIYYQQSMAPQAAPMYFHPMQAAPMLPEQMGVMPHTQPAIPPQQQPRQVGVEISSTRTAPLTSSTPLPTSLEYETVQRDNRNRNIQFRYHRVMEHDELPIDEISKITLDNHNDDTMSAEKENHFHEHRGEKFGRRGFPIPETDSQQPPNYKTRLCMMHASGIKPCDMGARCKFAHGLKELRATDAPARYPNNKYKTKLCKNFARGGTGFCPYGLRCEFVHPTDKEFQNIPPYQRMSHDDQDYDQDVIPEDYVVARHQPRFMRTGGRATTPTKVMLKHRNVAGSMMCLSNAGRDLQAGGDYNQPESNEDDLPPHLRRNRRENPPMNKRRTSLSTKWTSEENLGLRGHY

[22] = target: T5, Histone-lysine N-methyltransferase NSD2 (Homo sapiens, UniProt O96028); format: biochemical
T5 sequence (O96028 whole entry): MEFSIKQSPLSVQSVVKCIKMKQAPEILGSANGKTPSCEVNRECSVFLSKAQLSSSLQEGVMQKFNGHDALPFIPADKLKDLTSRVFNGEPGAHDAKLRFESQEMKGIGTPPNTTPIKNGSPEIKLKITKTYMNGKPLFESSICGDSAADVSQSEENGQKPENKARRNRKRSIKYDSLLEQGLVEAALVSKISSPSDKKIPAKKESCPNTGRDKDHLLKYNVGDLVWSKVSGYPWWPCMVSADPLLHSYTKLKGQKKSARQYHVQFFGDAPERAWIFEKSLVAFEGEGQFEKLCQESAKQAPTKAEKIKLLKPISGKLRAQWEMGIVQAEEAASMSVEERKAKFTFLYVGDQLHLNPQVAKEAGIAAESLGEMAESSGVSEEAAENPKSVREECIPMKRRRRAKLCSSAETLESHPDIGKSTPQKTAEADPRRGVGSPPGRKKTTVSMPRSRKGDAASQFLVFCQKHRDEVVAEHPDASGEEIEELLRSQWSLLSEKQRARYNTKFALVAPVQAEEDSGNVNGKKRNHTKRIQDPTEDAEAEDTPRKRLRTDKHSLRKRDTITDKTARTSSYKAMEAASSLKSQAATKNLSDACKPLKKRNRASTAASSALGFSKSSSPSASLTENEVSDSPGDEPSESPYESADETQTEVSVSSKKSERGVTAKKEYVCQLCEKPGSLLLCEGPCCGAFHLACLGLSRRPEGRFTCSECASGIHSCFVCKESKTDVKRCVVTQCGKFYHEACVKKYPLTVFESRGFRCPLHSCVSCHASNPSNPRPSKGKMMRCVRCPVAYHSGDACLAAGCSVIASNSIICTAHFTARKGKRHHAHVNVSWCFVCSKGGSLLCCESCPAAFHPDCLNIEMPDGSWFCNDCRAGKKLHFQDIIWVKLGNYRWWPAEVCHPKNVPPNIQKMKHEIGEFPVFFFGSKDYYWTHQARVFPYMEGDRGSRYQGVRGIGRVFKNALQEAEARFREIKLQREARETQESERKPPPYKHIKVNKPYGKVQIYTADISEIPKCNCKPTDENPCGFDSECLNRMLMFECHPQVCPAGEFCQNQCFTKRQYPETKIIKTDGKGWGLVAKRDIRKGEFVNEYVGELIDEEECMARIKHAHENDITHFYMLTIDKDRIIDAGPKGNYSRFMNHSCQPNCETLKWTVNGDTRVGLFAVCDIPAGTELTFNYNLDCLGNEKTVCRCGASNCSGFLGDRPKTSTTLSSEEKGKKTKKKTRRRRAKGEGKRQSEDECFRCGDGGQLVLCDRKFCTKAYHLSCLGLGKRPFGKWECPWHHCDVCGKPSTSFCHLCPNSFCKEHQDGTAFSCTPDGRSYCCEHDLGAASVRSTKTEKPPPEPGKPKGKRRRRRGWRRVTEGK

[23] = C. albicans growth with fluconazole, confirmation, fluorescence, retest (AID 2467); format: functional, cell-based
[24] = target: T6, RNA-binding protein pos-1 (Caenorhabditis elegans, UniProt G5EF15); test: inhibitors of POS-1/mex-3 RNA binding, dose response, biochemical, fluorescence polarization (AID 1964);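 note: purified POS-1 fused to maltose binding protein made in E. coli; potency of compounds blocking POS-1 binding to fluorescent RNA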
T6 sequence (G5EF15 whole entry): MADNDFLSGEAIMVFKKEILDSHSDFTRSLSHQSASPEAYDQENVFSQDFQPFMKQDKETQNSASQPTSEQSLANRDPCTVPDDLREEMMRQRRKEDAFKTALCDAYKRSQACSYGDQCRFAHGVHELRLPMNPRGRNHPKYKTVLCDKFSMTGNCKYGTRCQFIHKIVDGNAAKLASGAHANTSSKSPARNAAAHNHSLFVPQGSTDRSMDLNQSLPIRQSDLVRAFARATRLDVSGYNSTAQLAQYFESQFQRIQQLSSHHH

With `COc1ccccc1NC(=O)N1CCCCN2[C@@H](CO)[C@@H](c3ccc(C#Cc4ccccc4)cc3)[C@@H]2C1` the AC50 [1] was 19.3 µM (active), the AC50 [2] was 35 µM (active) and the AC50 [3] was 4.9 µM (active). The AC50 [4] was 39 µM (active).

In the case of `C[C@@H]1CCCCO[C@H](CN(C)S(=O)(=O)c2ccc(F)cc2)[C@@H](C)CN([C@@H](C)CO)C(=O)c2cc(N(C)C)ccc2O1`, the AC50 [5] is reported as 2.17 µM (active).

In the case of `Cc1cc(SC(C)C(=O)O)nc2ccccc12` (centres undefined), the IC50 [6] is reported as 8.85 µM (active) and the IC50 [7] is reported as > 138 µM (inactive).

For `C[C@@H]1CCCCO[C@@H](CN(C)C(=O)Nc2cccc3ccccc23)[C@H](C)CN([C@@H](C)CO)C(=O)c2cc(NC(=O)CCC(F)(F)F)ccc2O1`, the AC50 [5] was 6.54 µM (active).

For `CCOc1ccc2nc(NCCNC(=O)Nc3ccccc3)c(C#N)cc2c1`, the AC50 [8] was 19.5 µM (active).

With `COc1ccc(/C=C/C(=O)Nc2ccccc2C(=O)O)cc1OC` the AC50 [9] was 0.587 µM (active), the AC50 [10] was 0.594 µM (active) and the AC50 [11] was 10 µM (inconclusive).

In the case of `N#C[C@@H]1[C@H](c2ccccc2C2=CCCC2)[C@H](CO)N1C(=O)C1CCOCC1`, the AC50 [5] is reported as > 39 µM (inactive).

In the case of `Cc1nnc(NC(=O)CSc2nc(C(C)C)nc3ccccc23)s1`, the IC50 [12] is reported as > 69.5 µM (not active), the IC50 [13] is reported as > 66 µM (inactive) and the IC50 [6] is reported as 1.83 µM (active). The IC50 [7] was > 138 µM (inactive) and the IC50 [14] was > 66 µM (inactive).

With `O=C(Nc1c(-c2ccc3c(c2)OCO3)[nH][nH]c1=O)c1ccccc1` the AC50 [15] was 47.5 µM (active) and the IC50 [16] was 9.43 µM (active).

In the case of `COc1ccc(C(=O)Nc2cccc(NC(=O)c3ccc(OC)c(OC)c3)n2)cc1OC`, the IC50 [17] is reported as > 80 µM (inactive), the AC50 [8] is reported as 7.99 µM (active) and the IC50 [18] is reported as > 79 µM (inactive).

For `C[C@H]1CCCCO[C@@H](CN(C)Cc2ccc(C(F)(F)F)cc2)[C@@H](C)CN([C@@H](C)CO)C(=O)c2cc(NS(=O)(=O)c3ccc(F)cc3)ccc2O1`, the AC50 [1] was 34.2 µM (active), the AC50 [2] was 51.3 µM (active) and the AC50 [3] was 6.82 µM (active). For the same compound, the AC50 [4] was 39.4 µM (active).

In the case of `CCOc1cc(/C=C2\C(=O)NN(c3ccccc3)C2=O)cc([N+](=O)[O-])c1O`, the IC50 [19] is reported as > 100 µM (active), the EC50 [20] is reported as > 160 µM (inactive) and the EC50 [21] is reported as 36.2 µM (active). For the same compound, the AC50 [22] was > 20 µM (inactive), the EC50 [23] was > 38 µM (not active) and the AC50 [15] was 36.8 µM (active). For the same compound, the EC50 [24] was 129 µM (active).
